# Measured values published in ChEMBL document CHEMBL1152408, “Characterization of a Dispiroketal Spirolide Subclass from Alexandrium ostenfeldii” (J Nat Prod, 2009).
# Columns and labels:
# Type in all cases: organism-based
# [1] = tested on: Mus musculus; experiment: Toxicity in ip dosed mouse assessed as transient lethargy up to 2000 ug/kg; conditions: in vivo, 2 mg/kg
# [2] = tested on: Mus musculus; experiment: Toxicity in ip dosed mouse assessed as transient hunching up to 2000 ug/kg; conditions: in vivo, 2 mg/kg
# [3] = tested on: Mus musculus; experiment: Toxicity in ip dosed mouse; conditions: in vivo
structure (smiles),measurement,setting,value
C=C1CCCC2=NC[C@H](C)[C@@H](C)C[C@@]23CCC([C@@H]2C=C(C)C(=O)O2)=C(C)[C@@H]3/C=C(\C)[C@@H](O)C[C@H]2O[C@@]3(C[C@H]2C)O[C@@H](CC[C@@]3(C)O)C1 [Spirolide H],Activity,[1],Non-toxic
same,Activity,[2],Non-toxic
C=C1CCCC2=NC[C@H](C)[C@@H](C)C[C@@]23CCC([C@@H]2C=C(C)C(=O)O2)=C(C)[C@@H]3/C=C(\C)[C@@H](O)C[C@H]2O[C@]3(CC[C@@]4(O[C@@H](CC[C@@]4(C)O)C1)O3)C[C@H]2C [SPIROLIDE C],LD50,[3],6.9 µg/kg
C=C1CCCC2=NC[C@H](C)CC[C@@]23CCC([C@@H]2CC(C)C(=O)O2)=C(C)[C@@H]3/C=C(\C)[C@@H](O)C[C@H]2O[C@]3(CC[C@@]4(O[C@@H](CC[C@@]4(C)O)C1)O3)C[C@H]2C (some centres not stated) [SPIROLIDE B],LD50,[3],6.9 µg/kg
C=C1CCCC2=NC[C@H](C)CC[C@@]23CCC([C@@H]2C=C(C)C(=O)O2)=C(C)[C@@H]3/C=C(\C)[C@@H](O)C[C@H]2O[C@]3(CC[C@@]4(O[C@@H](CC[C@@]4(C)O)C1)O3)C[C@H]2C [SPIROLIDE A],LD50,[3],6.9 µg/kg
C=C1CCCC2=NC[C@H](C)[C@@H](C)C[C@@]23CCC([C@@H]2C=C(C)C(=O)O2)=C(C)[C@@H]3/C=C(\C)CC[C@@H]2CC[C@]3(COC[C@]4(O[C@H]1CC[C@@]4(C)O)[C@@H]3O)O2,LD50,[3],6.9 µg/kg
C=C1CCCC2=NC[C@H](C)[C@@H](C)C[C@@]23CCC([C@@H]2C=C(C)C(=O)O2)=C(C)[C@@H]3/C=C(\C)[C@@H](O)C[C@@H]2CC[C@@]3(CC[C@@]4(O[C@@H](CC[C@@]4(C)O)C1)O3)O2,LD50,[3],6.9 µg/kg
